# The source made the active and inactive calls. How the calls were made is not given here.
# Target: intestinal alkaline phosphatase (Alpi), Mus musculus
# Test: murine Alpi activation by analogs – biochemical, luminescence, SAR follow-up (AID 493146)
# Conditions: purified mouse IAP, luminescent substrate
row,Structure (SMILES),EC50
1,COc1ccc(CNC(=O)CSc2sc3c(O)cc(=O)[nH]c3c2C#N)cc1OC,> 100 µM (inactive)
2,O=C(CCN1C(=O)/C(=C/c2ccco2)SC1=S)Nc1ccc(O)cc1C(=O)O,> 100 µM (inactive)
3,CC(C(=O)NCCc1ccc(O)cc1)N1C(=O)/C(=C/c2ccco2)SC1=S (stereo unspecified),> 100 µM (inactive)
4,CC(C(=O)N(C)C1CCS(=O)(=O)C1)N1C(=O)/C(=C/c2ccco2)SC1=S (stereo unspecified),> 100 µM (inactive)
5,CC(C)c1ccc(NC(=O)CCNS(=O)(=O)c2ccc3[nH]c(=O)oc3c2)cc1,> 100 µM (inactive)
6,Cc1ccc(Cl)cc1NC(=O)CSc1sc2c(O)cc(=O)[nH]c2c1C#N,> 100 µM (inactive)
7,N#Cc1c(SCC(=O)Nc2cccc(F)c2)sc2c(O)cc(=O)[nH]c12,> 100 µM (inactive)
8,COc1cccc(CNC(=O)CCNS(=O)(=O)c2ccc3[nH]c(=O)oc3c2)c1,> 100 µM (inactive)
9,COc1ccccc1NC(=O)CSc1sc2c(O)cc(=O)[nH]c2c1C#N,> 100 µM (inactive)
10,CCOC(=O)N1CCC(NC(=O)CSc2sc3c(O)cc(=O)[nH]c3c2C#N)CC1,> 100 µM (inactive)
11,O=C(CCCN1C(=O)/C(=C\c2ccco2)SC1=S)Nc1ccc(O)cc1C(=O)O,> 100 µM (inactive)
12,Cc1csc(NC(=O)CSc2sc3c(O)cc(=O)[nH]c3c2C#N)n1,> 100 µM (inactive)
13,O=C(N/N=C/c1ccc(F)cc1)c1cc(O)c(O)c(O)c1,> 100 µM (inactive)
14,COC(=O)c1ccc(C)c(NC(=O)CSc2sc3c(O)cc(=O)[nH]c3c2C#N)c1,> 100 µM (inactive)
15,O=C(O)CC(C(=O)O)N1C(=O)/C(=C/c2ccc(-c3nc4ccccc4s3)o2)SC1=S (stereo unspecified),> 100 µM (inactive)
16,N#Cc1c(SCC(=O)Nc2ccc(Cl)cc2Cl)sc2c(O)cc(=O)[nH]c12,> 100 µM (inactive)
17,CC(C(=O)Nc1ccccc1C(=O)O)N1C(=O)/C(=C\c2ccco2)SC1=S (stereo unspecified),> 100 µM (inactive)
18,O=C(NN=Cc1cccnc1)c1cc(O)c(O)c(O)c1,> 100 µM (inactive)
19,O=C(CCNS(=O)(=O)c1ccc2[nH]c(=O)oc2c1)Nc1ccccc1,> 100 µM (inactive)
20,FC(F)(F)c1cccc(NC(=S)NCCC(c2ccccc2)c2ccccc2)c1,82.3 µM
21,O=C1/C(=C/c2ccco2)SC(=S)N1C1CCS(=O)(=O)C1 (stereo unspecified),> 100 µM (inactive)
22,N#Cc1c(SCC(=O)NCc2ccc3c(c2)OCO3)sc2c(O)cc(=O)[nH]c12,> 100 µM (inactive)

row,Structure (SMILES),EC50
1,COc1cccc(/C=N/NC(=O)c2cc(O)c(O)c(O)c2)c1,> 100 µM (inactive)
2,CCOc1ccccc1NC(=O)CCNS(=O)(=O)c1ccc2[nH]c(=O)oc2c1,> 100 µM (inactive)
3,COc1ccc(N2CCN(C(=O)CN3C(=O)/C(=C\c4ccco4)SC3=S)CC2)cc1,> 100 µM (inactive)
4,CCN(CC)C(=O)CSc1sc2c(O)cc(=O)[nH]c2c1C#N,> 100 µM (inactive)
5,COc1ccc(CNC(=O)CSc2sc3c(O)cc(=O)[nH]c3c2C#N)cc1,> 100 µM (inactive)
6,O=C(CN1C(=O)/C(=C\c2ccco2)SC1=S)Nc1ccc(C(=O)O)cc1,> 100 µM (inactive)
7,Cc1ccc(/C=N/NC(=O)c2cc(O)c(O)c(O)c2)cc1,> 100 µM (inactive)
8,O=C(CN1C(=O)/C(=C/c2ccco2)SC1=S)NC1C=CS(=O)(=O)C1 (stereo unspecified),> 100 µM (inactive)
9,O=C(N/N=C/c1ccsc1)c1cc(O)c(O)c(O)c1,> 100 µM (inactive)
10,Cc1cc(NC(=O)CSc2sc3c(O)cc(=O)[nH]c3c2C#N)ccc1Br,> 100 µM (inactive)
11,O=C(c1ccco1)N1CCN(S(=O)(=O)c2ccc3[nH]c(=O)oc3c2)CC1,> 100 µM (inactive)
12,N#Cc1c(SCC(=O)Nc2nc3ccccc3s2)sc2c(O)cc(=O)[nH]c12,> 100 µM (inactive)
13,CCOC(=O)N1CCN(S(=O)(=O)c2ccc3[nH]c(=O)oc3c2)CC1,> 100 µM (inactive)
14,CC(C(=O)Nc1cccc(C(=O)O)c1)N1C(=O)/C(=C\c2ccco2)SC1=S (stereo unspecified),> 100 µM (inactive)
15,COc1cc([N+](=O)[O-])ccc1NC(=S)NCCC(c1ccccc1)c1ccccc1,> 100 µM (inactive)
16,S=C(NCCC(c1ccccc1)c1ccccc1)Nc1ccc(Cl)cc1Cl,7.1 µM
17,CC(C)NC(=O)CSc1sc2c(O)cc(=O)[nH]c2c1C#N,> 100 µM (inactive)
18,O=C(C1CCN(S(=O)(=O)c2ccc3[nH]c(=O)oc3c2)CC1)N1CC=C(c2ccccc2)CC1,> 100 µM (inactive)
19,N#Cc1c(SCC(=O)Nc2nc3ccc(Br)cc3s2)sc2c(O)cc(=O)[nH]c12,> 100 µM (inactive)
20,CCOC(=O)NC(=O)CSc1sc2c(O)cc(=O)[nH]c2c1C#N,> 100 µM (inactive)
21,CN1CCC(=NNC(=O)c2cc(O)c(O)c(O)c2)CC1,> 100 µM (inactive)
22,N#Cc1c(SCC(=O)Nc2nccs2)sc2c(O)cc(=O)[nH]c12,> 100 µM (inactive)

row,Structure (SMILES),EC50
1,Cc1ccc(NC(=O)CCNS(=O)(=O)c2ccc3[nH]c(=O)oc3c2)cc1,> 100 µM (inactive)
2,CC(C(=O)Nc1ccc(C(=O)O)c(O)c1)N1C(=O)/C(=C\c2ccco2)SC1=S (stereo unspecified),> 100 µM (inactive)
3,COc1ccccc1NC(=O)CCNS(=O)(=O)c1ccc2[nH]c(=O)oc2c1,> 100 µM (inactive)
4,COc1ccc(OC)c(NC(=O)CCNS(=O)(=O)c2ccc3[nH]c(=O)oc3c2)c1,> 100 µM (inactive)
5,CC(C(=O)Nc1ccc(C(=O)O)cc1)N1C(=O)/C(=C\c2ccco2)SC1=S (stereo unspecified),> 100 µM (inactive)
6,O=C(CN1C(=O)/C(=C\c2ccco2)SC1=S)Nc1cccc(C(=O)O)c1,> 100 µM (inactive)
7,O=C(CN1C(=O)/C(=C\c2ccco2)SC1=S)Nc1ccccc1C(=O)O,> 100 µM (inactive)
8,CCOc1ccc2nc(NC(=O)CN(C)S(=O)(=O)c3ccc4[nH]c(=O)oc4c3)sc2c1,> 100 µM (inactive)
9,O=C(CN1C(=O)/C(=C/c2ccco2)SC1=S)Nc1ccc(O)c(C(=O)O)c1,> 100 µM (inactive)
10,CC(C)N1CCC(=NNC(=O)c2cc(O)c(O)c(O)c2)CC1,> 100 µM (inactive)
11,COc1cc(C(=O)NNC(=S)NC(=O)c2ccc(Cl)cc2)cc(OC)c1OC,> 100 µM (inactive)
12,CCc1nnc(NC(=O)CSc2sc3c(O)cc(=O)[nH]c3c2C#N)s1,> 100 µM (inactive)
13,N#Cc1c(SCC(=O)Nc2nncs2)sc2c(O)cc(=O)[nH]c12,> 100 µM (inactive)
14,O=C(CCCN1C(=O)/C(=C/c2ccco2)SC1=S)Nc1ccccc1,> 100 µM (inactive)
15,O=C(CCN1C(=O)/C(=C/c2ccco2)SC1=S)Nc1ccc(C(=O)O)c(O)c1,> 100 µM (inactive)
16,COc1cc(C(=O)NNc2nc3cc4c(cc3s2)OCO4)cc(OC)c1OC,> 100 µM (inactive)
17,CSc1cccc(NC(=O)CCNS(=O)(=O)c2ccc3[nH]c(=O)oc3c2)c1,> 100 µM (inactive)
18,O=C(N/N=C/C1CC=CCC1)c1cc(O)c(O)c(O)c1 (stereo unspecified),> 100 µM (inactive)
19,N#Cc1cccc(NC(=O)CSc2sc3c(O)cc(=O)[nH]c3c2C#N)c1,> 100 µM (inactive)
20,NS(=O)(=O)c1ccc(-c2ccc(/C=C3\SC(=S)N(C4CCS(=O)(=O)C4)C3=O)o2)cc1 (stereo unspecified),> 100 µM (inactive)
21,O=C(N/N=C/c1ccco1)c1cc(O)c(O)c(O)c1,> 100 µM (inactive)
22,COc1ccc(NC(=S)NCCC(c2ccccc2)c2ccccc2)cc1,37.7 µM

# From PubChem BioAssay AID493146 (Sanford-Burnham Center for Chemical Genomics, 2011)
